The text below walks through data of patent publication US20230346773A1, “USE OF PCSK9 INHIBITOR IN PREPARATION OF PRODUCT FOR TREATING MULTIPLE DISEASES” (priority 2020, published 2023).

Test [1] concerns hair follicles / hair growth in depilated C57BL/6 mice. In words: Hair growth in C57BL/6 mice after rosin/paraffin depilation. It counts as in vivo. The method, then:
SPF grade C57BL/6 mice were selected and numbered according to their weight. They were randomly divided into compound group 1 (skin applied with 2% R-IMPP solution), compound group 2 (skin applied with 2% PF 06446846 solution), and compound group 3 (skin applied with 2% SBC-115076 solution), compound group 4 (skin applied with 2% SBC-110736 solution), monoclonal antibody group 1 (PCSK9subcutaneous injection monoclonal antibody ab81041, 5 mg/kg·d), monoclonal antibody group 2 (Subcutaneous injection of Evolocumab, 5 mg/kg·d), monoclonal antibody group 3 (subcutaneous injection of Alirocumab, 5 mg/kg·d), PCSK9 RNA interference group-1 (skin applied with 2% PCSK9 small interfering RNA-1 solution), PCSK9 RNA interference Group-2 (skin applied with 2% PCSK9 small interfering RNA-2 solution), PCSK9 RNA interference group-3 (skin applied with 2% PCSK9 small interfering RNA-3 solution), polypeptide group (subcutaneous injection of Abcam company ab32727, 3 mg/kg·d), positive control group (skin applied with 2% minoxidil solution), negative control group (skin applied with 60% ethanol), and model control group (skin applied with 60% ethanol), 10 mice in each group, half male and half female. After the mice were anesthetized with ether, they were coated on the back with a mixture of rosin and paraffin (1:1) after hot melting, and then peeled off after it solidified and hardened. The back of the mouse was cleaned to be hairless and without injuries. The depilation area was about 3 cm×4 cm. From the 2nd day after depilation, the corresponding drugs were applied to the hair removal area, twice a day, 0.5 mL per animal each time, and subcutaneously injected once a week.
From the second day after application, observe the daily color change of the skin on the back of the mice to determine the growth state of the hair follicles and visually observe the hair growth in the depilation area, and score the new hair growth in the depilation area once a day. Five mice in each group were reserved for 40 days of visual observation, and the growth of back hair was recorded.
On the 17th day, five mice in each group were sacrificed by cervical dislocation. The samples were taken from the same part of the back parallel to the spine, fixed with 10% formaldehyde, dehydrated, embedded in paraffin, sectioned, stained with HE, and sealed with neutral gum. Then the histology of hair follicles was observed under light microscope, and morphological staging of hair follicles was performed. According to the international hair cycle scoring method, the hair follicles were scored as follows: 100 points for growth stage VI, 200 points for early regression, 300 points for middle regression, and 400 points for late regression. 50 hair follicles were randomly selected from each mouse, the cycle of the hair follicles in each group was determined, and the average hair cycle score and the percentage of hair follicles in the growth phase VI, early regression, middle regression, and late regression were calculated.

Test [2] concerns androgenetic alopecia (SA) rat model. In words: Androgenetic alopecia (SA) rat model induced by testosterone propionate. In kind it is in vivo, Wistar rats. The method, then:
SPF grade Wistar rats were selected and randomly divided into compound group 1 (skin applied with 5% R-IMPP solution), compound group 2 (skin applied with 5% PF 06446846 solution), and compound group 3 (skin applied with 5% SBC-115076 solution), compound group 4 (skin applied with 5% SBC-110736 solution), monoclonal antibody group 1 (subcutaneous injection of PCSK9 monoclonal antibody ab84041, 5 mg/kg·d), monoclonal antibody group 2 (subcutaneous injection of Evolocumab, 5 mg/kg·d), monoclonal antibody group 3 (subcutaneous injection of Alirocumab, 5 mg/kg·d), PCSK9 RNAi inhibitor group-1 (skin applied with 5% PCSK9 small interfering RNA-1 solution), PCSK9 RNAi inhibitor group-2 (skin applied with 5% PCSK9 small interfering RNA-2 solution), PCSK9 RNAi inhibitor group-3 (skin applied with 5% PCSK9 small interfering RNA-3 solution), and polypeptide group (subcutaneous injection of Abcam company ab32727, 3 mg/kg·d), positive control group (skin smeared with 5% minoxidil tincture), negative control group (smeared with 75% ethanol), model control group (smeared with 75% ethanol), 10 rats in each group, half male and half female.
Before the experiment, each rat selected an area of 4 cm×5 cm on the back to remove the hair as the observation area. Except for the negative control group, the rats were subcutaneously injected with testosterone propionate injection [[…]] at the back of the neck, once a day for 60 consecutive days to establish the SA model. […] At the same time, the rats in the corresponding drug group were smeared or subcutaneously injected on the skin of the observation area of the rats in the drug group, smeared 1 ml/(per time), twice a day, with an interval of 8 hours, and administered by subcutaneous injection, once a day. The negative control group and the model control group were smeared with excipient (75% ethanol solution), 1 mL one rat per time, twice a day, for 60 consecutive days.
10 hairs were extracted from the observation area on the back of each rat every 15 days after administration, and the hair length was measured with a vernier caliper. After 60 days of administration, the skin of the experimental observation area was taken for routine tissue dehydration, paraffin embedding, HE staining, and light microscopy to observe the histopathological changes of the rat skin hair follicles and sebaceous glands. Semi-quantitative analysis was carried out in each group. The grading standards are as follows: normal skin dermal tissue cells, subcutaneous hair follicles, and sebaceous glands were marked as “one”; no hyperplasia in the dermis, limited lesions of hair follicles and sebaceous glands, and no subcutaneous inflammation, marked as “±”; no obvious hyperplasia found in the dermis, obviously cystic follicles, no obvious hyperplasia found in the sebaceous glands, and no inflammation is recorded as “+”; segmental hyperplasia of skin and dermis was not obvious, a small number of hair follicles had cystic degeneration, and sebaceous glands had mild hyperplasia and hypertrophy. No obvious inflammation under the skin was recorded as “++”; the skin and dermis tissue cells had segmental hyperplasia of different degrees, some follicles degenerated, the size of the hair follicles was uneven, and there were no cells in the periphery. There was hyperplasia of sebaceous glands, and there were few nuclei in the hyperplasia glands. Individual rats had mild inflammatory hyperplasia under the skin, which was marked as “+++”.

[3] abbreviates: hair removal area on the back of mice, after hair removal.

Molecules are shown by their SMILES. Marks after values point to notes of the source that are not given here.

In the case of `Nc1cc(N2CCCCC2)nc(N)[n+]1[O-]` [Positive control group, minoxidil], in test [1] (17th day after hair plucking), the “percentage of hair follicles in the growth stage VI” value was 42%. For the same compound, the “average hair cycle score” value in test [1] (17th day after hair plucking, 100 points growth stage VI, 200 early, 300 middle, 400 late regression) was 185. In test [1] (back hair removal area of mice), the “Time from hair growth to the same length as the hair in the non-experimental area” value is reported as 15.77 days, the “Time to grow new hair” value is 7.85 days and the “Time to match the length of hair in the non-experimental area” value amounted to 23.62 days. In addition, the Black skin duration in test [1] (hair removal area on the back of mice) is reported as 12.80 days. For the same compound, in test [1] (setting [3]), the Skin black-turning time was 6.29* days and the Skin grayish-black-turning time is recorded as 19.09* days. In addition, the “Skin hair follicles and sebaceous glands: number of rats graded ++” value in test [2] (10 rats, after 60 days, few follicles with cystic degeneration, sebaceous glands mild hyperplasia and hypertrophy) is reported as 2. The “Skin hair follicles and sebaceous glands: number of rats graded ±” value in test [2] (10 rats, after 60 days, no hyperplasia in the dermis, limited lesions of hair follicles and sebaceous glands, no subcutaneous inflammation) worked out at 3. For the same compound, the “Skin hair follicles and sebaceous glands: number of rats graded +” value in test [2] (10 rats, after 60 days, no obvious hyperplasia in dermis, obviously cystic follicles, no inflammation) is listed as 5. For the same compound, the “Skin hair follicles and sebaceous glands: number of rats graded −” value in test [2] (10 rats, after 60 days, normal skin dermal tissue cells, subcutaneous hair follicles and sebaceous glands) is given as 0. In test [2] (10 rats, after 60 days, segmental hyperplasia, degenerated follicles, hyperplasia of sebaceous glands, mild inflammatory hyperplasia), the “Skin hair follicles and sebaceous glands: number of rats graded +++” value worked out at 0. Further, the “15 d hair length” value in test [2] (rats, 15 days after administration) is on record as 7.9* mm. Moreover, the “30 d hair length” value in test [2] (rats, 30 days after administration) is listed as 8.4* mm. Further, the “45 d hair length” value in test [2] (rats, 45 days after administration) is 12.8* mm. The “60 d hair length” value in test [2] (rats, 60 days after administration) is listed as 14.9* mm.
